Experimental data taken from PMC3466269, “A Comprehensive Strategy to Discover Inhibitors of the Translesion Synthesis DNA Polymerase κ” (PLoS ONE, 2012).

Biological target: T1, Yeast pol δ (Saccharomyces cerevisiae, UniProt P15436)
T1 sequence (P15436 1-1097): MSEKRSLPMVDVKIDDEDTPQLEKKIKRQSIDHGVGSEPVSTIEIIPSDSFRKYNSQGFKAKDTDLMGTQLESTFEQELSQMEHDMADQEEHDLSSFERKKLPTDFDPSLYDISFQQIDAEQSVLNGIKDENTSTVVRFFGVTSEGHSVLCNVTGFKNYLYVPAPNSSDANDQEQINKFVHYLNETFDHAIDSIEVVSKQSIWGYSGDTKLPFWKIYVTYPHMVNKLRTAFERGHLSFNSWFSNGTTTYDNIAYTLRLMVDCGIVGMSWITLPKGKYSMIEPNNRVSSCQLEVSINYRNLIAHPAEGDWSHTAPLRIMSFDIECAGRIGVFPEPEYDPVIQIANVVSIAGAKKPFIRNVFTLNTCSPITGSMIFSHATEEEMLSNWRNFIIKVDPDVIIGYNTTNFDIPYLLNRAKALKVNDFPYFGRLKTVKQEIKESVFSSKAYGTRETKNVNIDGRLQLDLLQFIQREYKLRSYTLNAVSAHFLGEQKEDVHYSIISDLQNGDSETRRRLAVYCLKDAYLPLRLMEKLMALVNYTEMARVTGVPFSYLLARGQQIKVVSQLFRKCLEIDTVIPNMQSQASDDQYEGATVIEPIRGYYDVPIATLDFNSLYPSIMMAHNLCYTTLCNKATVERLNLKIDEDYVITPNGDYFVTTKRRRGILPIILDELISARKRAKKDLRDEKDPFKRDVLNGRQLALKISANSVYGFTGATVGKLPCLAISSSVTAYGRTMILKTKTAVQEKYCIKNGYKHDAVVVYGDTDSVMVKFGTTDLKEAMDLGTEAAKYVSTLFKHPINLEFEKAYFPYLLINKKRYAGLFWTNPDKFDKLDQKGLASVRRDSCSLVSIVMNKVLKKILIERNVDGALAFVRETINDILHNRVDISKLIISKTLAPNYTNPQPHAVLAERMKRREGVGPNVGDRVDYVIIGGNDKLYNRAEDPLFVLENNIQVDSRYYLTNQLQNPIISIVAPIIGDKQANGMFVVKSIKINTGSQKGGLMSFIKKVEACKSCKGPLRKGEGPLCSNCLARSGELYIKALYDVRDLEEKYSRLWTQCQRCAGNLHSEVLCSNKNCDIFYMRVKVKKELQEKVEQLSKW
T1 sequence (P46957 1-487 partner): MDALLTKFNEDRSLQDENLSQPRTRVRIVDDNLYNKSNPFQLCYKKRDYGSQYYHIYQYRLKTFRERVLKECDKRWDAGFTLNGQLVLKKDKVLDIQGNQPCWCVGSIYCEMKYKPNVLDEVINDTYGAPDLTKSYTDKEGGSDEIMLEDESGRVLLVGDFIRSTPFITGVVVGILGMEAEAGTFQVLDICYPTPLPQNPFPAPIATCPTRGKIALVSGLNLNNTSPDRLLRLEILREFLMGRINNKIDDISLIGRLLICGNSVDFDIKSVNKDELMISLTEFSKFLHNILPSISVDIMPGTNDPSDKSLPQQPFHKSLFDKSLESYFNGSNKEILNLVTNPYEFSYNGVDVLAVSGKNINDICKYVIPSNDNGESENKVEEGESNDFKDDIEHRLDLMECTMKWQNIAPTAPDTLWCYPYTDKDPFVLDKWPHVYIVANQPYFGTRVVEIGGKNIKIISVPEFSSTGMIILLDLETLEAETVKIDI
T1 sequence (P47110 1-350 partner): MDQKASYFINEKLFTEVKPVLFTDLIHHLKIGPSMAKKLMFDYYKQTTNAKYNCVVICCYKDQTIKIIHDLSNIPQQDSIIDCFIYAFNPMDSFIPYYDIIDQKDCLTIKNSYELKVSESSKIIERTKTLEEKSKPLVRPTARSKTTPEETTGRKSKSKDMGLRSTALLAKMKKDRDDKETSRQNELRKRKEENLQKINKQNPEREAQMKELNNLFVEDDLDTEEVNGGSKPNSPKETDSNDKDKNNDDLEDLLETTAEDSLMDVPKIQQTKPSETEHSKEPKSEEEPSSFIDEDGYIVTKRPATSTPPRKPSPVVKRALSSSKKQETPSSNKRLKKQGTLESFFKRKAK
Test: Radioactive gel-based primer extension assay, pol δ
Assay type: biochemical
Description: The reactions with pol κ, pol η, and pol ι were carried out in the buffers containing 25 mM Tris-HCl, pH 7.5, 8 mM MgCl2, 10% glycerol, 100 µg/mL bovine serum albumin, and 5 mM DTT. Buffers for pol δ reactions contained 40 mM Hepes-KOH, pH 6.8, 10% glycerol, 200 µg/mL bovine serum albumin, 1 mM DTT, and 8 mM MgCl2. Final concentration of pol κ, pol η, pol ι, or pol δ in the reaction was 0.25 nM, 1 nM, 2.5 nM, or 4 nM, respectively. In this assay, a polymerase was preincubated with the compound for 15 min at room temperature. Primer extensions were then initiated by the addition of DNA substrate at final concentration of 5 nM and carried out for 30 min at room temperature in the presence of 100 µM dCTP and dGTP. The reactions were terminated by the addition of an equal volume of a dye solution containing 95% (v/v) formamide, 10 mM EDTA, 0.03% (w/v) xylene cyanol, and 0.03% (w/v) bromphenol blue. Reaction products were separated through a 15% acrylamide gel containing 8 M urea and visualized with a PhosphorImager screen. The ratio of extended primer to the total amount of primer was measured using ImageQuant 5.2 software to calculate the percentage of primer extended. IC50 values were determined by fitting the data to variable slope four-parameter equations using GraphPad Prism 5. […]

Compound: CCOc1nc2cccc(C(=O)OC(C)OC(=O)OC3CCCCC3)c2n1Cc1ccc(-c2ccccc2-c2nnn[nH]2)cc1 (centres unmarked) [candesartan cilexetil, Candesartan cilexetil]
- IC50 pol δ (maximum concentration 80 µM): could not be determined
- Inhibition of pol δ DNA synthesis (several concentrations, maximum 80 µM, data not shown): only at 80 µM concentration was there detectable inhibition
